Patent US20200157563A1, “METHODS OF PRODUCING HUMAN CANCER CELL MODELS AND METHODS OF USE” (The Broad Institute, Inc., priority 2017, published 2020)
Where “and” joins values, the source holds several entries; their conditions need not be identical. Equal entries are not always repeated.

system: TERT promoter or exon 1; experiment: Efficiency of tested Cas9 guide sequences (indel formation after RNP delivery); type: cell-based, human; conditions: 3 days post-editing; Cas9 guide targeting TERT promoter or exon 1; replicates 1 and 2 listed separately
Method: Guide sequences for all genes were determined by empirically testing multiple guides per gene for cutting efficiency (on the extreme end, we tested around 40 Cas9 guide sequences for TERT before settling on one that works).
Applicants also determined guide RNAs for introducing indels at the TERT gene (FIG. 12).
Mutations were first engineered into CDKN2A (‘C’), BRAF (‘B’), and TERT (‘T’) (FIGS. 19A-19G). Lesions in these three genes happen early in melanoma pathogenesis and are exceptionally common, co-occurring events (Akbani et al. Cell 161:1681-1696 (2015)) that have been hypothesized to suffice for malignant transformation (Shain et al. Nat Rev Cancer 16:345-358 (2016); Shain et al. N Engl J Med 373:1926-1936 (2015)). After electroporation of Cas9 ribonucleoprotein complex (RNP) (Rimm et al. Am J Pathol 154:325-329 (1999)) targeting CDKN2A exon 2, the only exon shared by both p16 and p14 protein products, small insertions and deletions (‘indels’) in the gene underwent natural positive selection during cell culture from a 90-95% allele frequency at day three to nearly 100% by day 42 (FIG. 19A). Into these CDKN2A knockout (‘C’) melanocytes, Applicants next introduced the BRAF V600E mutation by co-delivering Cas9 RNP targeting BRAF exon 15 together with a homologous DNA donor encoding the V600E mutation. Recombinant adeno-associated virus (rAAV) was used to deliver the DNA donor (Rimm et al. Am J Pathol 154:325-329 (1999)) in order to increase the low editing efficiency over plasmid or single-stranded oligodeoxynucleotide donors (data not shown; Dever et al. Nature 539:384-389 (2016)). Over roughly 150 days in culture, the BRAF V600E allele increased from a frequency of 6% at day 3 to nearly 100% at day 155 (FIG. 19B). Finally, into these CDKN2A knockout, BRAF V600E mutant (‘CB’) melanocytes, Applicants introduced the −124C>T (also known as C228T) TERT promoter mutation by co-delivery of Cas9 RNP targeting TERT exon 1 together with a homologous DNA donor encoding TERT −124C>T. The −124C>T TERT promoter mutation allele shifted from a stable allele frequency of 3-5% over the first 30 days in culture to roughly 50% by day 75, and stayed at roughly 50% for more than 300 days of continuous culture (FIG. 19C; this 50% frequency is further discussed below). Engineering the TERT promoter mutation was the most technically difficult of these three mutations, and required testing forty different Cas9 guide sequences to identify a potent reagent for making double stranded breaks near the TERT promoter locus (Table 9), possibly due to the high G:C content or closed chromatin state at this locus (Yeh et al. Nat Commun 8:644 (2017)).
Cas9 protein, tracrRNA, and crRNAs (‘guides’, Table 20) were purchased and prepared according to manufacturer's instructions (IDT). To generate RNP complexes, 3-6 μg Cas9 and 45 pmol previously annealed crRNA:trRNA were incubated together for 10 minutes at 25° C. before delivery by electroporation. To target CDKN2A, two crRNAs were mixed at a molar ratio of 1:1 (22.5 pmol crRNA 1: 22.5 pmol crRNA 2) and incubated with 3 μg Cas9.
Electroporation was performed using the Lonza Nucleofector 4D System (program: EO-208) and P3 Primary Cell Nucleofector Kit (Lonza), according to manufacturer's instructions, with optional inclusion of 100 pmol electroporation enhancer (IDT 1075916). After electroporation, cells were incubated with 80 μL of warm media for 10 minutes at 37° C. to enhance recovery and were directly transferred into a tissue culture plate.
DNA was extracted using QuickExtract DNA Extraction Solution following recommended guidelines (Epicentre). Target genomic loci were amplified using gene-specific primers (Table 21) that included universal handles for later attachment of barcoded Illumina adaptors using an additional round of PCR. […]

| Substance | % Indel Post-Editing |
| --- | --- |
| 21 (guide AAACTCGCGCCGCGAGGAGA; chemistry not given here) [compound 21] | 0.5362% and 0.5957% |
| 28 (guide GGGGAGCGCGCGGCATCGCG; chemistry not given here) [compound 28] | 1.175% and 1.846% |
| 17 (guide GAAACTCGCGCCGCGAGGAG; chemistry not given here) [compound 17] | 0.03391% and 0.163% |
| 27 (guide TGGCCAGCGGCAGCACCTCG; chemistry not given here) [compound 27] | 13.61% and 13.93% |
| 38 (guide GGAGCGCACGGCTCGGCAGC; chemistry not given here) [compound 38] | 0.8353% and 1.797% |
| 37 (guide GGGAGCGCACGGCTCGGCAG; chemistry not given here) [compound 37] | 5.208% and 5.478% |
| 18 (guide GCCCCTCCCCTTCCTTTCCG; chemistry not given here) [compound 18] | 2.299% and 1.045% |
| 26 (guide GCTGCGCAGCCACTACCGCG; chemistry not given here) [compound 26] | 9.609% and 9.23% |
| 16 (guide GGCCGCGGAAAGGAAGGGGA; chemistry not given here) [compound 16] | 0.1942% and 0.09556% |
| 6 (guide GGGAGGGCCCGGAGGGGGCT; chemistry not given here) [compound 6] | 0.3562% and 0.3112% |
| 3 (guide TCCCCGGCCCAGCCCCCTCC; chemistry not given here) [compound 3] | 0.2836% and 0.473% |
| 29 (guide GCTGCGCAGCAGGGAGCGCA; chemistry not given here) [compound 29] | 0.5165% and 0.5841% |
| 32 (guide TGCCGCTGGCCACGTTCGTG; chemistry not given here) [compound 32] | 0.1665% and 0.1061% |
| 36 (guide GCGGCAGCACCTCGCGGTAG; chemistry not given here) [compound 36] | 2.113% and 1.684% |
| 19 (guide TGCCTGAAACTCGCGCCGCG; chemistry not given here) [compound 19] | 0.3096% and 0.2587% |
| 34 (guide GCGGTAGTGGCTGCGCAGCA; chemistry not given here) [compound 34] | 27.04% and 29.27% |

| Substance | % Indel Post-Editing |
| --- | --- |
| 2 (guide GTCCCCGGCCCAGCCCCCTC; chemistry not given here) [compound 2] | 0.29% and 0.6087% |
| 31 (guide CCACGTTCGTGCGGCGCCTG; chemistry not given here) [compound 31] | 3.555% and 3.026% |
| 33 (guide CGCCGCACGAACGTGGCCAG; chemistry not given here) [compound 33] | 2.925% and 2.489% |
| 39 (guide GAGCGCACGGCTCGGCAGCG; chemistry not given here) [compound 39] | 6.049% and 7.137% |
| 7 (guide GAGGGGCTGGGAGGGCCCGG; chemistry not given here) [compound 7] | 0.2257% and 0.1728% |
| 22 (guide GGCGGGGCCGCGGAAAGGAA; chemistry not given here) [compound 22] | 1.212% and 0.3044% |
| 23 (guide GCCGCGGAAAGGAAGGGGAG; chemistry not given here) [compound 23] | 0.7353% and 0.8087% |
| 4 (guide GGGGCTGGGAGGGCCCGGAG; chemistry not given here) [compound 4] | 0.2787% and 0.05972% |
| 40 (guide GCTCGGCAGCGGGGAGCGCG; chemistry not given here) [compound 40] | 14.09% and 12.53% |
| 35 (guide CTACCGCGAGGTGCTGCCGC; chemistry not given here) [compound 35] | 1.038% and 1.547% |
| 24 (guide GGGCCGCGGAAAGGAAGGGG; chemistry not given here) [compound 24] | 0.19% and 0.2632% |
| 5 (guide GGGCTGGGAGGGCCCGGAGG; chemistry not given here) [compound 5] | 0.3738% and 0.4065% |
| 1 (guide TGGGAGGGCCCGGAGGGGGC; chemistry not given here) [compound 1] | 0.1686% and 0.2057% |
| 25 (guide GGAAAGGAAGGGGAGGGGCT; chemistry not given here) [compound 25] | 0.6945% and 1.088% |
| 20 (guide GCGGGGCCGCGGAAAGGAAG; chemistry not given here) [compound 20] | 0.1376% and 0.1734% |

same assay, conditions: 5 days post-editing; Cas9 guide targeting TERT promoter or exon 1; replicates 1 and 2 listed separately

| Substance | % Indel Post-Editing |
| --- | --- |
| 8 (guide GGGGGCTGGGCCGGGGACCC; chemistry not given here) [compound 8] | 0.1929% and 0.225% |
| 9 (guide GGCTGGGCCGGGGACCCGGG; chemistry not given here) [compound 9] | 0.5674% and 0.398% |
| 10 (guide GCTGGGCCGGGGACCCGGGA; chemistry not given here) [compound 10] | 0.3155% and 0.389% |
| 14 (guide CGCCCCGTCCCGACCCCTCC; chemistry not given here) [compound 14] | 0.04851% and 0.09263% |
| 11 (guide CTGGGCCGGGGACCCGGGAG; chemistry not given here) [compound 11] | 0.2288% and 0.2733% |
| 12 (guide GCCGGGGACCCGGGAGGGGT; chemistry not given here) [compound 12] | 0.1682% and 0.08339% |
| 13 (guide CCGGGGACCCGGGAGGGGTC; chemistry not given here) [compound 13] | 0.06603% and 0.05525% |
| 15 (guide GCCCCGTCCCGACCCCTCCC; chemistry not given here) [compound 15] | 0.375% |
